Counter-ions that a name gives are not always drawn.
Legend:
[1] = system: HUVEC (normal human umbilical vein endothelial cells); assay: VEGF-induced HUVEC proliferation: cell proliferation inhibitory action test; type: cell-based; settings: 72 h, 5 μL of 20 μg/mL test compound solution per well, WST-8 absorbance at 450 nm three days after VEGF addition, read-out: Cell proliferation inhibition rate (%);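 further: each well holds 100 µL cell suspension before compound addition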
Method in brief: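 HUVECs in 0.5% FBS F12K on type I collagen were pretreated 1 h with compound (20 μg/mL solution in PBS from DMSO stock, 5 μL/well), then stimulated with VEGF (400 ng/mL solution). After 3 days at 37 °C, viability was read by WST-8 A450. Inhibition % was calculated against a 1.0% DMSO control, minus cell+medium blank.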

B16 cells = assay: Tumor growth inhibitory action test using cancer models in mice (B16 cells); type: in vivo; settings: C57BL/6N mouse, B16 cells intradermal; 100 mg/kg/day oral once a day, day 0 to day 10; average of 9 mice per group; read-out: Tumor tissue weight inhibition rate (%)
Experimental: A tumor growth inhibitory action test of the compounds of the present invention was performed using a tumor growth model in mice, which is one of the widely-used methods of evaluating in vivo anticancer effects of drugs.
As one of the widely-used methods of evaluating anticancer effects of drugs, a tumor growth inhibitory action test using cancer models in mice has been reported in Cancer Res., 59, 5209-5218 (1999). According to the method described in the above-mentioned document, a tumor growth inhibitory action test of the compounds of the present invention was performed, the tumor tissue weight inhibition rate was calculated, and the anticancer effect of each of the compounds of the present invention was evaluated using the obtained rate as an index.
A 1% aqueous methyl cellulose solution was added to each test compound to suspend it with a sonicator, whereby a 10 mg/mL test compound suspension was prepared.
Physiological saline was added to B16 cells, whereby a 3.3×10^7 cells/mL B16 cell suspension was prepared.
• 1) The back of each mouse (female, 6 weeks of age, C57BL/6N mouse) was depilated using a depilatory under Nembutal anesthesia. • 2) Several days after the depilation, the B16 cell suspension (300 μL) was injected intradermally into the back of the mouse under Nembutal anesthesia. • 3) From the B16 cell injection day (i.e. on day 0) to day 10, the test compound suspension (100 mg/kg/day) was orally administered once a day consecutively. • 4) Ten days after the injection of the cells, the mouse was euthanized with CO2 gas. • 5) A tumor tissue was enucleated from the mouse, and the weight of the tumor tissue was measured with an electronic balance. • 6) A test was performed in the same manner as in 1) to 5) except that the 1% aqueous methyl cellulose solution was used instead of the test compound suspension, and the result was used as a control. (Calculation of Tumor Tissue Weight Inhibition Rate)
A tumor tissue weight inhibition rate (the average of 9 mice per group), which was used as an index of anticancer effect, was calculated according to the following calculation equation. Tumor tissue weight inhibition rate (%)=100−(Mx/Mo)×100 (Calculation Equation) Mo: Tumor tissue weight of control group Mx: Tumor tissue weight of test compound solution administration group (Test Results and Discussion)

SMILES	inhibition at 20 µg/mL (stock) [1] [%]	inhibition in vivo at 100 mg/kg/day (B16 cells) [%]
Cc1cc(C)cc(NC(=O)c2cccnc2SCc2ccnc(N)c2)c1 [Compound 3-1, 2-(2-Aminopyridin-4-ylmethylthio)-N-(3,5-dimethylphenyl)pyridine-3-carboxamide monohydrochloride]	100	70
CC(=O)Nc1cc(CSc2ncccc2C(=O)Nc2ccc(OC(F)(F)F)cc2)ccn1 [Compound 4-11, 2-(2-Acetylaminopyridin-4-ylmethylthio)-N-(4-trifluoromethoxyphenyl)pyridine-3-carboxamide]	93	86
O=C(CO)Nc1cc(CSc2ncccc2C(=O)Nc2ccc(OC(F)(F)F)cc2)ccn1 [Compound 12-1, 2-(2-Hydroxyacetylaminopyridin-4-ylmethylthio)-N-(4-trifluoromethoxyphenyl)pyridine-3-carboxamide]	78	85
CNc1cc(CSc2ncccc2C(=O)Nc2ccc(OC(F)(F)F)cc2)ccn1 [Compound 3-8, 2-(2-Methylaminopyridin-4-ylmethylthio)-N-(4-trifluoromethoxyphenyl)pyridine-3-carboxamide monohydrochloride]	100	80
CC(=O)OCC(=O)Nc1cc(CSc2ncccc2C(=O)Nc2cc(C)cc(C)c2)ccn1 [Compound 10-1, 2-(2-Acetoxyacetylaminopyridin-4-ylmethylthio)-N-(3,5-dimethylphenyl)pyridine-3-carboxamide]	100	54
Nc1cc(CSc2ncccc2C(=O)Nc2ccc(OC(F)(F)F)cc2)ccn1 [Compound 3-10, 2-(2-Aminopyridin-4-ylmethylthio)-N-(4-trifluoromethoxyphenyl)pyridine-3-carboxamide]	97	85
CC(=O)Nc1cc(CSc2ncccc2C(=O)Nc2cc(C)cc(C)c2)ccn1 [Compound 4-1, 2-(2-Acetylaminopyridin-4-ylmethylthio)-N-(3,5-dimethylphenyl)pyridine-3-carboxamide]	100	75
CC(=O)Nc1cc(CSc2ncccc2C(=O)Nc2ccc(Cl)cc2)ccn1 [Compound 4-10, 2-(2-Acetylaminopyridin-4-ylmethylthio)-N-(4-chlorophenyl)pyridine-3-carboxamide]	100	75
CNC(=O)Nc1cc(CSc2ncccc2C(=O)Nc2cc(C)cc(C)c2)ccn1 [Compound 9-1, N-(3,5-Dimethylphenyl)-2-[2-(N′-methylureido)pyridin-4-ylmethylthio]pyridine-3-carboxamide]	100	43
